Measurements reported in patent publication US9982005B2, “Macrolides and methods of their preparation and use” (President and Fellows of Harvard College, priority 2013, dated 2018).
Converted amounts (≈) assume the structure as drawn. Like-named read-outs stand apart in the source and are kept apart here.

Assays:
Type in all cases: cell-based
[1] = test system: BS1723 B. subtilis BS168 WT wild type; assay: broth dilution MIC, B. subtilis BS1723; settings: Bacillus subtilis, BS1723 B. subtilis BS168 WT wild type; read-out: MIC
Summary of the method: (§1)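 Values are broth dilution MICs measured according to CLSI standard procedure; the macrolide azithromycin was tested as control.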

[2] = test system: SA418 S. aureus ermA negative msrA positive; assay: broth dilution MIC, S. aureus SA418; settings: Staphylococcus aureus
Source text: (§2) We have collected MIC data for a total of 50 novel macrolides that this platform has produced against over 21 unique strains of B. subtilis, E. coli, S. aureus, S. pneumoniae, and H. influenzae, including several multidrug-resistant strains, with a special focus on macrolide resistant mechanisms (vide supra). Azithromycin was included as a control macrolide. CLSI standard procedures for broth dilution MIC determination were used. […] These genotypes can be constitutive or inducible. The finding that C4-epi (unnatural) isomers of the “azaketolide” macrolide class have enhanced activities relative to C4 natural isomers is very exciting.

[3] = test system: HI175 H. influenzae ATCC49247; assay: broth dilution MIC, H. influenzae HI175; settings: Haemophilus influenzae
Source text: as §2

[4] = test system: Spn1537 S. pneumoniae ermB positive mefA positive; assay: broth dilution MIC, S. pneumoniae Spn1537; settings: Streptococcus pneumoniae
Source text: as §2

K. pneumoniae strains = assay: MIC against K. pneumoniae strains (Table M8); settings: Klebsiella pneumoniae, K. pneumoniae 10031
EC882 E. coli imp = assay: broth dilution MIC, E. coli EC882
Summary of the method: as §1

[5] = test system: SA557 S. aureus ermA unknown msrA positive; assay: broth dilution MIC, S. aureus SA557; settings: Staphylococcus aureus; SA557 S. aureus ermA unknown msrA positive; read-out: MIC
Source text: as §2

[6] = test system: Spn1427 S. pneumoniae ermB positive mefA negative; assay: broth dilution MIC, S. pneumoniae Spn1427; settings: Streptococcus pneumoniae
Source text: as §2

EC107 E. coli ATCC25922 = assay: broth dilution MIC, E. coli EC107; settings: Escherichia coli, read-out: MIC
Summary of the method: as §1

[7] = test system: SA1707 S. aureus ermA negative msrA positive; assay: broth dilution MIC, S. aureus SA1707; settings: Staphylococcus aureus
Source text: as §2

S. aureus strains = assay: MIC against S. aureus strains (Table M7); settings: Staphylococcus aureus
Summary of the method: as §1

HI281 H. influenzae = assay: broth dilution MIC, H. influenzae HI281; settings: Haemophilus influenzae
Source text: as §2

[8] = test system: Spn1509 S. pneumoniae ermB positive mefA negative; assay: broth dilution MIC, S. pneumoniae Spn1509; settings: Streptococcus pneumoniae; Spn1509 S. pneumoniae ermB positive mefA negative; read-out: MIC
Source text: as §2

[9] = test system: Spn160 S. pneumoniae ermB unknown mefA positive; assay: broth dilution MIC, S. pneumoniae Spn160; settings: Streptococcus pneumoniae
Source text: as §2

E. faecalis strains = assay: MIC against E. faecalis strains (Table M8); settings: Enterococcus faecalis, E. faecalis 29212
[10] = test system: SA183 S. aureus ermA positive msrA unknown; assay: broth dilution MIC, S. aureus SA183; settings: Staphylococcus aureus
Source text: as §2

H. influenzae strains = assay: MIC against H. influenzae strains (Table M8); settings: Haemophilus influenzae
Summary of the method: as §1

E. coli strains = assay: MIC against E. coli strains (Table M7); settings: Escherichia coli, ATCC25922, E. coli ATCC 25922
Summary of the method: as §1

A. baumannii strains = assay: MIC against A. baumannii strains (Table M8); settings: Acinetobacter baumannii, BAA747, A. baumannii BAA747-1
BS1725 B. subtilis ermC = assay: broth dilution MIC, B. subtilis BS1725; settings: Bacillus subtilis, BS1725 B. subtilis ermC (+ery)
Summary of the method: as §1

[11] = test system: SA101 S. aureus ATCC29213; assay: broth dilution MIC, S. aureus SA101; settings: Staphylococcus aureus, ATCC29213, SA101 S. aureus ATCC29213; read-out: MIC
Summary of the method: as §1

S. pneumoniae strains = assay: MIC against S. pneumoniae strains (Tables M7, M8); settings: Streptococcus pneumoniae
Source text: CLSI standard procedures for broth dilution MIC determination were used. […] These genotypes can be constitutive or inducible.

[12] = test system: Spn 106 S. pneumonia ATCC49619; assay: broth dilution MIC, S. pneumoniae Spn 106; settings: Streptococcus pneumoniae; Spn 106 S. pneumonia ATCC49619; read-out: MIC
Source text: as §2

[13] = test system: SA1708 S. aureus ermA positive msrA negative; assay: broth dilution MIC, S. aureus SA1708; settings: Staphylococcus aureus
Source text: as §2

EC878 E. coli tolC = assay: broth dilution MIC, E. coli EC878; settings: Escherichia coli
Summary of the method: as §1

[14] = test system: SA506 S. aureus ermA positive msrA unknown; assay: broth dilution MIC, S. aureus SA506; settings: Staphylococcus aureus
Source text: as §2

[15] = test system: Spn1533 S. pneumoniae ermB positive mefA positive; assay: broth dilution MIC, S. pneumoniae Spn1533; settings: Streptococcus pneumoniae
Source text: as §2

Question: `CC[C@H]1OC(=O)[C@H](C)C(=O)[C@H](C)[C@@H](O[C@@H]2OC(C)CC(N(C)C)C2O)[C@](C)(OC)C[C@@H](C)CN[C@H](C)[C@H]2N(CCCCn3cc(-c4ccccn4)nn3)C(=O)O[C@]12C` (some centres unmarked) [FSM-20706] was tested. Which MIC [1] did it give?
Answer: 1 µg/mL (≈ 1.23 µM)

Question: What about the MIC [2] of the same compound?
Answer: 2 µg/mL (≈ 2.46 µM)

Question: And the MIC [3]?
Answer: 0.5 to 2 µg/mL (≈ 0.614 to 2.46 µM)

Question: And the MIC [4]?
Answer: > 32 µg/mL

Question: What about the MIC (K. pneumoniae strains) of the same compound?
Answer: 4 µg/mL (≈ 4.91 µM)

Question: And the MIC (EC882 E. coli imp; Escherichia coli)?
Answer: 0.0625 µg/mL (≈ 0.0768 µM)

Question: What about the MIC [5] of the same compound?
Answer: 2 µg/mL (≈ 2.46 µM)

Question: And the MIC [6]?
Answer: > 32 µg/mL

Question: And the MIC (EC107 E. coli ATCC25922)?
Answer: 8 µg/mL (≈ 9.83 µM)

Question: What about the MIC [7] of the same compound?
Answer: 4 µg/mL (≈ 4.91 µM)

Question: What about the MIC (S. aureus strains; ATCC29213, S. aureus ATCC 29213, read-out: MIC S. aureus (ATCC 29213)) of the same compound?
Answer: 2 µg/mL (≈ 2.46 µM)

Question: And the MIC (S. aureus strains; S. aureus 506, read-out: MIC S. aureus (506))?
Answer: > 32 µg/mL

Question: What about the MIC (S. aureus strains; S. aureus 1708, read-out: MIC S. aureus (1708)) of the same compound?
Answer: 1 µg/mL (≈ 1.23 µM)

Question: What about the MIC (S. aureus strains; USA300, S. aureus USA300, read-out: MIC S. aureus (USA300)) of the same compound?
Answer: 2 µg/mL (≈ 2.46 µM)

Question: What about the MIC (HI281 H. influenzae) of the same compound?
Answer: 4 µg/mL (≈ 4.91 µM)

Question: And the MIC [8]?
Answer: 0.5 to 2 µg/mL (≈ 0.614 to 2.46 µM)

Question: And the MIC [9]?
Answer: 0.0625 to 0.125 µg/mL (≈ 0.0768 to 0.154 µM)

Question: What about the MIC (E. faecalis strains) of the same compound?
Answer: 0.25 µg/mL (≈ 0.307 µM)

Question: What about the MIC [10] of the same compound?
Answer: > 32 µg/mL

Question: And the MIC (H. influenzae strains; H. influenzae 49247, read-out: MIC H. influenzae (49247))?
Answer: 0.5 µg/mL (≈ 0.614 µM)

Question: And the MIC (H. influenzae strains; H. influenzae 49766, read-out: MIC H. influenzae (49766))?
Answer: 2 µg/mL (≈ 2.46 µM)

Question: And the MIC (E. coli strains)?
Answer: 8 µg/mL (≈ 9.83 µM)

Question: What about the MIC (A. baumannii strains) of the same compound?
Answer: 32 µg/mL (≈ 39.3 µM)

Question: What about the MIC (BS1725 B. subtilis ermC) of the same compound?
Answer: 16 µg/mL (≈ 19.7 µM)

Question: What about the MIC [11] of the same compound?
Answer: 2 µg/mL (≈ 2.46 µM)

Question: And the MIC (S. pneumoniae strains; S. pneumoniae 160, read-out: MIC S. pneumonae (160))?
Answer: 0.125 µg/mL (≈ 0.154 µM)

Question: What about the MIC (S. pneumoniae strains; S. pneumoniae 1509, read-out: MIC S. pneumoniae (1509)) of the same compound?
Answer: 4 µg/mL (≈ 4.91 µM)

Question: And the MIC (S. pneumoniae strains; S. pneumoniae 1533, read-out: MIC S. pneumoniae (1533))?
Answer: > 32 µg/mL

Question: What about the MIC (S. pneumoniae strains; S. pneumoniae 1537, read-out: MIC S. pneumoniae (1537)) of the same compound?
Answer: > 32 µg/mL

Question: And the MIC (S. pneumoniae strains; read-out: MIC S. pneumoniae (49619))?
Answer: ≤ 0.0625 µg/mL

Question: And the MIC [12]?
Answer: 0.0156 to 0.0312 µg/mL (≈ 0.0192 to 0.0383 µM)

Question: What about the MIC [13] of the same compound?
Answer: 4 µg/mL (≈ 4.91 µM)

Question: And the MIC (EC878 E. coli tolC)?
Answer: 0.5 µg/mL (≈ 0.614 µM)

Question: And the MIC [14]?
Answer: > 32 µg/mL

Question: How did the MIC [1] turn out when `CC[C@H]1OC(=O)C(C)(F)C(=O)[C@@H](C)[C@@H](O[C@@H]2OC(C)CC(N(C)C)C2O)[C@](C)(OC)C[C@@H](C)CN(C)[C@H](C)[C@H]2N(CCCCn3cc(-c4nccs4)nn3)C(=O)O[C@]12C` (some centres unmarked) [FSM-20705] was run?
Answer: 8 µg/mL (≈ 9.39 µM)

Question: And the MIC [2]?
Answer: 16 µg/mL (≈ 18.8 µM)

Question: What about the MIC [3] of the same compound?
Answer: 16 to 32 µg/mL (≈ 18.8 to 37.6 µM)

Question: And the MIC [4]?
Answer: > 32 µg/mL

Question: What about the MIC (EC882 E. coli imp) of the same compound?
Answer: 0.25 µg/mL (≈ 0.293 µM)

Question: And the MIC [5]?
Answer: 8 µg/mL (≈ 9.39 µM)

Question: What about the MIC (EC107 E. coli ATCC25922) of the same compound?
Answer: > 32 µg/mL

Question: What about the MIC [7] of the same compound?
Answer: 32 µg/mL (≈ 37.6 µM)

Question: What about the MIC (HI281 H. influenzae) of the same compound?
Answer: > 32 µg/mL

Question: And the MIC [8]?
Answer: 4 to 16 µg/mL (≈ 4.69 to 18.8 µM)

Question: What about the MIC ([9]; Spn160 S. pneumoniae ermB unknown mefA positive, read-out: MIC) of the same compound?
Answer: 0.5 to 1 µg/mL (≈ 0.587 to 1.17 µM)

Question: What about the MIC [10] of the same compound?
Answer: > 32 µg/mL

Question: And the MIC [15]?
Answer: > 32 µg/mL

Question: And the MIC (BS1725 B. subtilis ermC)?
Answer: > 32 µg/mL

Question: What about the MIC [11] of the same compound?
Answer: 8 µg/mL (≈ 9.39 µM)

Question: What about the MIC [12] of the same compound?
Answer: 0.125 to 0.25 µg/mL (≈ 0.147 to 0.293 µM)

Question: What about the MIC [13] of the same compound?
Answer: 16 µg/mL (≈ 18.8 µM)

Question: What about the MIC (EC878 E. coli tolC) of the same compound?
Answer: 2 µg/mL (≈ 2.35 µM)

Question: And the MIC [14]?
Answer: > 32 µg/mL
